How the values were obtained:
Type in all cases: cell-based
CDK4 = biological target: T1, CDK4 (Homo sapiens, UniProt P11802); test: CDK4 degradation (DC50, Dmax)
T1 construct: endogenous in cells

[1] = test system: mantle cell lymphoma cell (Mino or JeKo-1); test: Antiproliferative effect, MTS cell viability assay; conditions: 72 h; for IC50: mantle cell lymphoma cell (Mino or JeKo-1), MTS assay, read-out: IC50 (anti-proliferation)
Summary of the method: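 Mino cells treated with compounds at 0, 0.0001, 0.001, 0.01, 0.1, 1 μM for 72 h; palbociclib and abemaciclib as positive controls. Viability by MTS, formazan absorbance read at 490 nm.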

CDK6 = biological target: T2, CDK6 (Homo sapiens, UniProt Q00534); test: CDK6 degradation (DC50, Dmax)
T2 construct: endogenous in cells
T2 sequence (Q00534 whole entry): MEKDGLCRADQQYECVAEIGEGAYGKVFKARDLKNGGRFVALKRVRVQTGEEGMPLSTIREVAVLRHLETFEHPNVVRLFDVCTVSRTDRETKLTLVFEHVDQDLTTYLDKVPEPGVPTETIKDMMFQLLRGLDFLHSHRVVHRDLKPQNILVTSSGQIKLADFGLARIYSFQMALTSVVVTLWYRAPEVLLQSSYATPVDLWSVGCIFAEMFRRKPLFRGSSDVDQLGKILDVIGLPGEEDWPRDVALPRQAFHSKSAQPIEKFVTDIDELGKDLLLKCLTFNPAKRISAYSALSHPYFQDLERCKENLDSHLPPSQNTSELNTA

T1 sequence (P11802 whole entry): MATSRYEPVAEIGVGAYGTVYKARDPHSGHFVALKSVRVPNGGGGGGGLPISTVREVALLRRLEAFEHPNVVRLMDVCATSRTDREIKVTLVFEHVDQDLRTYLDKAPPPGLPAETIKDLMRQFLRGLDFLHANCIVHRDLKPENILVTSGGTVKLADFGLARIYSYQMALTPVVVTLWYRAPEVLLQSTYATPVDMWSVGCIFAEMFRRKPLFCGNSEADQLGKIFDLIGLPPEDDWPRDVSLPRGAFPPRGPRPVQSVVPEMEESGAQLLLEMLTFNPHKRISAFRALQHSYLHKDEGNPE

DC50 (CDK4)	Dmax (CDK4)	IC50 [1]	DC50 (CDK6)	Dmax (CDK6)	SMILES	inhibition of cell proliferation of Mino cells ([1]; Mino cells, 0-1 μM, result in words)
50 to 200 nM	> 80%	< 50 nM	< 50 nM	> 80%	CC(=O)c1c(C)c2cnc(Nc3ccc(C4CCN(C(=O)C5CN(c6ccc(NC7CCC(=O)NC7=O)cc6)C5)CC4)cn3)nc2n(C2CCCC2)c1=O (stereo not drawn) [Compound 132, 3-((4-(3-(4-(6-((6-acetyl-8-cyclopentyl-5-methyl-7-oxo-7,8-dibydropyrido[2,3-d]pyrimidin-2-yl)amino)pyridin-3-yl)piperidine-1-carbonyl)azetidin-1-yl)phenyl)amino) piperidine-2,6-dione]	
50 to 200 nM	> 60%	50 to 200 nM	50 to 200 nM	> 60%	CC(=O)c1c(C)c2cnc(Nc3ccc(C4CCN(C(=O)C5CN(c6ccc(C(=O)NC7CCC(=O)NC7=O)cc6)C5)CC4)cn3)nc2n(C2CCCC2)c1=O (stereo not drawn) [Compound 131, 4-(3-(4-(6-((6-acetyl-8-cyclopentyl-5-methyl-7-oxo-7,8-dihydropyrido[2,3-d]pyrimidin-2-yl)amino)pyridin-3-yl)piperidine-1-carbonyl)azetidin-1-yl)-N-(2,6-dioxopiperidin-3-yl)benzamide]	
> 200 nM	> 60%	50 to 200 nM	> 200 nM	> 50%	CC(=O)c1c(C)c2cnc(Nc3ccc(N4CCN(CC5CCN(C(=O)N6CCC(c7ccc8c(c7)C(=O)N(C7CCC(=O)NC7=O)C8=O)CC6)CC5)CC4)cn3)nc2n(C2CCCC2)c1=O (stereo not drawn) [Compound 33, 5-(1-(4-((4-(6-((6-acetyl-8-cyclopentyl-5-methyl-7-oxo-7,8-dihydropyrido[2,3-d]pyrimidin-2-yl)amino)pyridin-3-yl)piperazin-1-yl)methyl)piperidine-1-carbonyl)piperidin-4-yl)-2-(2,6-dioxopiperidin-3-yl)isoindoline-1,3-dione]	
50 to 200 nM	> 50%	50 to 200 nM	50 to 200 nM	> 60%	Cc1nc2c(F)cc(-c3nc(Nc4ccc(CC5CCN(C(=O)C6CN(c7ccc(NC8CCC(=O)NC8=O)cc7)C6)CC5)cn4)ncc3F)cc2n1C(C)C (stereo not drawn) [Compound 146, 3-((4-(3-(4-((6-((5-fluoro-4-(4-fluoro-1-isopropyl-2-methyl-1H-benzo[d]imidazol-6-yl)pyrimidin-2-yl)amino)pyridin-3-yl)methyl)piperidine-1-carbonyl)azetidin-1-yl)phenyl)amino) piperidine-2,6-dione]	
> 200 nM	> 60%	50 to 200 nM	50 to 200 nM	> 60%	CC(=O)c1c(C)c2cnc(Nc3ccc(N4CCN(CCC5CCN(C(=O)Nc6ccc7c(c6)CN(C6CCC(=O)NC6=O)C7=O)CC5)CC4)cn3)nc2n(C2CCCC2)c1=O (stereo not drawn) [Compound 46, 4-(2-(4-(6-((6-acetyl-8-cyclopentyl-5-methyl-7-oxo-7,8-dihydropyrido[2,3-d]pyrimidin-2-yl)amino)pyridin-3-yl)piperazin-1-yl)ethyl)-N-(2-(2,6-dioxopiperidin-3-yl)-1-oxoisoindolin-5-yl)piperidine-1-carboxamide]	
50 to 200 nM	> 80%	< 50 nM	50 to 200 nM	> 80%	Cc1nc2c(F)cc(-c3nc(Nc4ccc(CC5CCN(C(=O)C6CN(c7ccc8c(c7)CN(C7CCC(=O)NC7=O)C8=O)C6)CC5)cn4)ncc3F)cc2n1C(C)C (stereo not drawn) [Compound 144, 3-(5-(3-(4-((6-((5-fluoro-4-(4-fluoro-1-isopropyl-2-methyl-1H-benzo[d]imidazol-6-yl)pyrimidin-2-yl)amino)pyridin-3-yl)methyl)piperidine-1-carbonyl)azetidin-1-yl)-1-oxoisoindolin-2-yl) piperidine-2,6-dione]	
50 to 200 nM	> 60%	50 to 200 nM	50 to 200 nM	> 60%	CC(=O)c1c(C)c2cnc(Nc3ccc(N4CCN(CCCCN(C)c5ccc6c(c5)CN(C5CCC(=O)NC5=O)C6=O)CC4)cn3)nc2n(C2CCCC2)c1=O (stereo not drawn) [Compound 60, 3-(5-((4-(4-(6-((6-acetyl-8-cyclopentyl-5-methyl-7-oxo-7,8-dihydropyrido[2,3-d]pyrimidin-2-yl)amino)pyridin-3-yl)piperazin-1-yl)butyl)(methyl)amino)-1-oxoisoindolin-2-yl) piperidine-2,6-dione]	
50 to 200 nM	> 80%	< 50 nM	50 to 200 nM	> 80%	Cc1nc2c(F)cc(-c3nc(Nc4ccc(CC5CCN(CC6CCN(c7ccc8c(c7)CN(C7CCC(=O)NC7=O)C8=O)CC6)CC5)cn4)ncc3F)cc2n1C(C)C (stereo not drawn) [Compound 158, 3-(5-(4-((4-((6-((5-fluoro-4-(4-fluoro-1-isopropyl-2-methyl-1H-benzo[d]imidazol-6-yl)pyrimidin-2-yi)amino)pyridin-3-yl)methyl)piperidin-1-yl)methyl)piperidin-1-yl)-1-oxoisoindolin-2-yl)piperidine-2,6-dione]	
50 to 200 nM	> 60%	50 to 200 nM	50 to 200 nM	> 60%	CC(=O)c1c(C)c2cnc(Nc3ccc(N4CCN(CCN5CCN(C(=O)Nc6ccc7c(c6)C(=O)N(C6CCC(=O)NC6=O)C7=O)CC5)CC4)cn3)nc2n(C2CCCC2)c1=O (stereo not drawn) [Compound 43, 4-(2-(4-(6-((6-acetyl-8-cyclopentyl-5-methyl-7-oxo-7,8-dihydropyrido[2,3-d]pyrimidin-2-yl)amino)pyridin-3-yl)piperazin-1-yl)ethyl)-N-(2-(2,6-dioxopiperidin-3-yl)-1,3-dioxoisoindolin-5-yl)piperazine-1-carboxamide]	
< 50 nM	> 80%	< 50 nM	50 to 200 nM	> 80%	CC(=O)c1c(C)c2cnc(Nc3ccc(N4CCN(CC5CCN(C(=O)Nc6ccc7c(c6)C(=O)N(C6CCC(=O)NC6=O)C7=O)CC5)CC4)cn3)nc2n(C2CCCC2)c1=O (stereo not drawn) [Compound 41, 4-((4-(6-((6-acetyl-8-cyclopentyl-5-methyl-7-oxo-7,8-dihydropyrido[2,3-d]pyrimidin-2-yl)amino)pyridin-3-yl)piperazin-1-yl)methyl)-N-(2-(2,6-dioxopiperidin-3-yl)-1,3-dioxoisoindolin-5-yl)piperidine-1-carboxamide]	
< 50 nM	> 60%	50 to 200 nM	50 to 200 nM	> 60%	Cc1nc2c(F)cc(-c3nc(Nc4ccc(CN5CCN(C6CN(c7ccc8c(c7)C(=O)N(C7CCC(=O)NC7=O)C8=O)C6)CC5)cn4)ncc3F)cc2n1C(C)C (stereo not drawn) [Compound 147, 2-(2,6-dioxopiperidin-3-yl)-5-(3-(4-((6-((5-fluoro-4-(4-fluoro-1-isopropyl-2-methyl-1H-benzo[d]imidazol-6-yl)pyrimidin-2-yl)amino)pyridin-3-yl)methyl)piperazin-1-yl)azetidin-1-yl)isoindoline-1,3-dione]	
< 50 nM	> 80%	< 50 nM	< 50 nM	> 80%	CC(=O)c1c(C)c2cnc(Nc3ccc(N4CCN(CCNc5ccc6c(c5)C(=O)N(C5CCC(=O)NC5=O)C6=O)CC4)cn3)nc2n(C2CCCC2)c1=O (stereo not drawn) [Compound 47, 5-((2-(4-(6-((6-acetyl-8-cyclopentyl-5-methyl-7-oxo-7,8-dihydropyrido[2,3-d]pyrimidin-2-yl)amino)pyridin-3-yl)piperazin-1-yl)ethyl)amino)-2-(2,6-dioxopiperidin-3-yl)isoindoline-1,3-dione]	dose-dependent inhibition of cell proliferation
50 to 200 nM	> 60%	50 to 200 nM	50 to 200 nM	> 60%	CC(=O)c1c(C)c2cnc(Nc3ccc(N4CCN(CCCN(C)c5ccc6c(c5)C(=O)N(C5CCC(=O)NC5=O)C6=O)CC4)cn3)nc2n(C2CCCC2)c1=O (stereo not drawn) [Compound 57, 5-((3-(4-(6-((6-acetyl-8-cyclopentyl-5-methyl-7-oxo-7,8-dihydropyrido[2,3-d]pyrimidin-2-yl)amino)pyridin-3-yl)piperazin-1-yl)propyl)(methyl)amino)-2-(2,6-dioxopiperidin-3-yl)isoindoline-1,3-dione]	
50 to 200 nM	> 50%	50 to 200 nM	> 200 nM	> 50%	Cc1nc2c(F)cc(-c3nc(Nc4ccc(CN5CCN(C(=O)C6CCN(c7ccc(C(=O)NC8CCC(=O)NC8=O)cc7)CC6)CC5)cn4)ncc3F)cc2n1C(C)C (stereo not drawn) [Compound 155, N-(2,6-dioxopiperidin-3-yl)-4-(4-(4-((6-((5-fluoro-4-(4-fluoro-1-isopropyl-2-methyl-1H-benzo[d]imidazol-6-yl)pyrimidin-2-yl)amino)pyridin-3-yl)methyl)piperazine-1-carbonyl)piperidin-1-yl)benzamide]	
> 200 nM	> 60%	> 200 nM	> 200 nM	> 60%	CC(=O)c1c(C)c2cnc(Nc3ccc(N4CCN(C5CCN(C(=O)N6CCC(C7CCN(c8ccc9c(c8)C(=O)N(C8CCC(=O)NC8=O)C9=O)CC7)CC6)CC5)CC4)cn3)nc2n(C2CCCC2)c1=O (stereo not drawn) [Compound 85, 5-(1′-(4-(4-(6-((6-acetyl-8-cyclopentyl-5-methyl-7-oxo-7,8-dihydropyrido[2,3-d]pyrimidin-2-yl)amino)pyridin-3-yl)piperazin-1-yl)piperidine-1-carbonyl)-[4,4′-bipiperidin]-1-yl)-2-(2,6-dioxopiperidin-3-yl) isoindoline-1,3-dione]	
< 50 nM	> 80%	< 50 nM	< 50 nM	> 80%	CC(=O)c1c(C)c2cnc(Nc3ccc(C4CCN(CC5CN(c6ccc7c(c6)CN(C6CCC(=O)NC6=O)C7=O)C5)CC4)cn3)nc2n(C2CCCC2)c1=O (stereo not drawn) [Compound 126, 3-(5-(3-((4-(6-((6-acetyl-8-cyclopentyl-5-methyl-7-oxo-7,8-dihydropyrido[2,3-d]pyrimidin-2-yl)amino)pyridin-3-yl)piperidin-1-yl)methyl)azetidin-1-yl)-1-oxoisoindolin-2-yl) piperidine-2,6-dione]	
